Results reported in the supplement of paper PMC10627819.

Legend:
S. aureus DSM 20231 [1] = test: fitness (endpoint OD595 vs no drug) (fraction); higher = more growth
How it was run: (§1)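 In 384-well plates at 37 °C, cultures began at OD595 0.01 in 30 µl, with 55 µl used for S. pneumoniae. OD595 readings every 30 min for 14 h were corrected by the first reading. Fitness divides the stationary-phase transition optical density by the robust mean of no-drug control wells. The result is capped at 1.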

B. subtilis 168 [2] = test: Bliss interaction score (quartile over a dose matrix) (fitness difference); higher = more antagonism (negative = synergy)
How it was run: (§2)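 Combination data were used to infer fitness under each single drug. Fitness is the OD595 at entry into stationary phase divided by the robust mean of the plate's no-drug wells, with a cap of 1. The Bliss score is the observed minus the expected product fitness, summarised by quartiles over technical, biological and donor/recipient replicates.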

S. aureus DSM 20231 [3] = test: as above
How it was run: as §2

S. aureus Newman = test: as above
How it was run: as §2

S. pneumoniae D39V [4] = test: as above
How it was run: as §2

B. subtilis 168 [5] = test: fitness (endpoint OD595 vs no drug) (fraction); higher = more growth
How it was run: as §1

S. pneumoniae D39V [6] = test: as above
How it was run: as §1
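For Bliss interaction score (quartile over a dose matrix) in this document: first quartile when negative (synergy) and third quartile when positive (antagonism).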

O=C(N[C@H](CO)[C@H](O)c1ccc([N+](=O)[O-])cc1)C(Cl)Cl [Chloramphenicol] + CC(=O)NC[C@H]1CN(c2ccc(N3CCOCC3)c(F)c2)C(=O)O1 [Linezolid]
fitness, S. aureus DSM 20231 [1]
Details	first compound 0.75 µg/mL	first compound 1.5 µg/mL	first compound 3 µg/mL
partner 0.125 µg/mL	0.609	0.321	0.11
partner 0.25 µg/mL	0.353	0.227	0.0855
partner 0.5 µg/mL	0.128	0.119	0.0711

S. aureus DSM 20231 [1], partner 1 µg/mL, one replicate
Details	fitness
first compound 0.75 µg/mL	0.0506
first compound 1.5 µg/mL	0.0474
first compound 3 µg/mL	0.0396

Details	Bliss interaction score
B. subtilis 168 [2]	-0.141
S. aureus DSM 20231 [3]	-0.152
S. aureus Newman	-0.112
S. pneumoniae D39V [4]	0.0462

O=C(N[C@H](CO)[C@H](O)c1ccc([N+](=O)[O-])cc1)C(Cl)Cl [Chloramphenicol] + CCC[C@@H]1C[C@@H](C(=O)N[C@@H]([C@H]2O[C@H](SC)[C@H](O)[C@@H](O)[C@H]2O)[C@@H](C)O)N(C)C1 [Lincomycin]
fitness, S. aureus DSM 20231 [1]
Details	first compound 0.75 µg/mL	first compound 1.5 µg/mL	first compound 3 µg/mL
partner 0.1 µg/mL	0.729	0.57	–
partner 0.2 µg/mL	0.563	0.378	–
partner 0.4 µg/mL	0.215	0.167	0.0709

Details	Bliss interaction score
B. subtilis 168 [2]	0.11
S. aureus DSM 20231 [3]	0.0462
S. aureus Newman	-0.167
S. pneumoniae D39V [4]	0.105

CCC[C@@H]1C[C@@H](C(=O)N[C@@H]([C@H]2O[C@H](SC)[C@H](O)[C@@H](O)[C@H]2O)[C@H](C)Cl)N(C)C1 [Clindamycin] + CC(=O)NC[C@H]1CN(c2ccc(N3CCOCC3)c(F)c2)C(=O)O1 [Linezolid]
one replicate
Details	fitness
B. subtilis 168 [5], first compound 0.0039 µg/mL, partner 0.125 µg/mL	0.943
B. subtilis 168 [5], first compound 0.0039 µg/mL, partner 0.25 µg/mL	0.772
B. subtilis 168 [5], first compound 0.0039 µg/mL, partner 0.5 µg/mL	0.448
B. subtilis 168 [5], first compound 0.0078 µg/mL, partner 0.125 µg/mL	0.853
B. subtilis 168 [5], first compound 0.0078 µg/mL, partner 0.25 µg/mL	0.632
B. subtilis 168 [5], first compound 0.0078 µg/mL, partner 0.5 µg/mL	0.118
B. subtilis 168 [5], first compound 0.0156 µg/mL, partner 0.125 µg/mL	0.835
B. subtilis 168 [5], first compound 0.0156 µg/mL, partner 0.25 µg/mL	0.624
B. subtilis 168 [5], first compound 0.0156 µg/mL, partner 0.5 µg/mL	0.385
B. subtilis 168 [5], first compound 0.0625 µg/mL, partner 0.0625 µg/mL	0.696
B. subtilis 168 [5], first compound 0.125 µg/mL, partner 0.0625 µg/mL	0.497
B. subtilis 168 [5], first compound 0.25 µg/mL, partner 0.0625 µg/mL	0.387
S. aureus DSM 20231 [1], first compound 0.0312 µg/mL, partner 1 µg/mL	0.0507
S. aureus DSM 20231 [1], first compound 0.0625 µg/mL, partner 1 µg/mL	0.0324
S. aureus DSM 20231 [1], first compound 0.125 µg/mL, partner 1 µg/mL	0.0362

Details	fitness
B. subtilis 168 [5], first compound 0.0625 µg/mL, partner 0.125 µg/mL	0.605
B. subtilis 168 [5], first compound 0.0625 µg/mL, partner 0.25 µg/mL	0.0905
B. subtilis 168 [5], first compound 0.0625 µg/mL, partner 0.5 µg/mL	0.0427
B. subtilis 168 [5], first compound 0.125 µg/mL, partner 0.125 µg/mL	0.502
B. subtilis 168 [5], first compound 0.125 µg/mL, partner 0.25 µg/mL	0.0971
B. subtilis 168 [5], first compound 0.125 µg/mL, partner 0.5 µg/mL	0.0448
B. subtilis 168 [5], first compound 0.25 µg/mL, partner 0.125 µg/mL	0.397
B. subtilis 168 [5], first compound 0.25 µg/mL, partner 0.25 µg/mL	0.104
B. subtilis 168 [5], first compound 0.25 µg/mL, partner 0.5 µg/mL	0.0468
S. aureus DSM 20231 [1], first compound 0.0312 µg/mL, partner 0.5 µg/mL	0.143
S. aureus DSM 20231 [1], first compound 0.0625 µg/mL, partner 0.25 µg/mL	0.13
S. aureus DSM 20231 [1], first compound 0.0625 µg/mL, partner 0.5 µg/mL	0.0789
S. aureus DSM 20231 [1], first compound 0.125 µg/mL, partner 0.125 µg/mL	0.0394
S. aureus DSM 20231 [1], first compound 0.125 µg/mL, partner 0.25 µg/mL	0.0405
S. aureus DSM 20231 [1], first compound 0.125 µg/mL, partner 0.5 µg/mL	0.0486
S. pneumoniae D39V [6], first compound 0.0125 µg/mL, partner 0.2 µg/mL	0.624
S. pneumoniae D39V [6], first compound 0.0125 µg/mL, partner 0.4 µg/mL	0.45
S. pneumoniae D39V [6], first compound 0.0125 µg/mL, partner 0.8 µg/mL	0.264
S. pneumoniae D39V [6], first compound 0.015 µg/mL, partner 0.105 µg/mL	0.81
S. pneumoniae D39V [6], first compound 0.015 µg/mL, partner 0.21 µg/mL	0.748
S. pneumoniae D39V [6], first compound 0.015 µg/mL, partner 0.42 µg/mL	0.627
S. pneumoniae D39V [6], first compound 0.025 µg/mL, partner 0.2 µg/mL	0.412
S. pneumoniae D39V [6], first compound 0.025 µg/mL, partner 0.4 µg/mL	0.345
S. pneumoniae D39V [6], first compound 0.025 µg/mL, partner 0.8 µg/mL	0.237
S. pneumoniae D39V [6], first compound 0.03 µg/mL, partner 0.105 µg/mL	0.707
S. pneumoniae D39V [6], first compound 0.03 µg/mL, partner 0.21 µg/mL	0.683
S. pneumoniae D39V [6], first compound 0.03 µg/mL, partner 0.42 µg/mL	0.539
S. pneumoniae D39V [6], first compound 0.05 µg/mL, partner 0.2 µg/mL	0.176
S. pneumoniae D39V [6], first compound 0.05 µg/mL, partner 0.4 µg/mL	0.148
S. pneumoniae D39V [6], first compound 0.05 µg/mL, partner 0.8 µg/mL	0.112
S. pneumoniae D39V [6], first compound 0.06 µg/mL, partner 0.105 µg/mL	0.579
S. pneumoniae D39V [6], first compound 0.06 µg/mL, partner 0.21 µg/mL	0.544
S. pneumoniae D39V [6], first compound 0.06 µg/mL, partner 0.42 µg/mL	0.277

Details	Bliss interaction score
B. subtilis 168 [2]	0.215
S. aureus DSM 20231 [3]	0.027
S. aureus Newman	-0.0929
S. pneumoniae D39V [4]	0.132

CCC[C@@H]1C[C@@H](C(=O)N[C@@H]([C@H]2O[C@H](SC)[C@H](O)[C@@H](O)[C@H]2O)[C@H](C)Cl)N(C)C1 [Clindamycin] + COc1cc(Cc2cnc(N)nc2N)cc(OC)c1OC [Trimethoprim]
fitness, B. subtilis 168 [5], one replicate
Details	partner 0.1 µg/mL	partner 0.125 µg/mL	partner 0.2 µg/mL	partner 0.25 µg/mL	partner 0.4 µg/mL	partner 0.5 µg/mL	partner 1 µg/mL	partner 2 µg/mL
first compound 0.0039 µg/mL	–	0.663	–	0.563	–	0.518	–	–
first compound 0.0078 µg/mL	–	0.603	–	0.511	–	0.481	–	–
first compound 0.0156 µg/mL	–	0.596	–	0.54	–	0.531	–	–
first compound 0.0625 µg/mL	0.461	0.38	0.271	–	0.174	–	0.041	0.0649
first compound 0.125 µg/mL	0.256	0.179	0.172	–	0.0828	–	0.031	0.0548
first compound 0.25 µg/mL	0.126	0.0411	0.0757	–	0.0475	–	0.0278	0.0626

fitness
Details	first compound 0.0312 µg/mL	first compound 0.0625 µg/mL	first compound 0.125 µg/mL	first compound 0.25 µg/mL
B. subtilis 168 [5], partner 0.25 µg/mL	–	0.352	0.233	0.083
B. subtilis 168 [5], partner 0.5 µg/mL	–	0.222	0.101	0.0589
S. aureus DSM 20231 [1], partner 0.125 µg/mL	0.268	0.0676	0.0245	–
S. aureus DSM 20231 [1], partner 0.25 µg/mL	–	0.125	0.0812	–
S. aureus DSM 20231 [1], partner 0.5 µg/mL	–	0.0734	0.0599	–
S. aureus DSM 20231 [1], partner 1 µg/mL	0.124	0.0694	0.0452	–

Details	Bliss interaction score
B. subtilis 168 [2]	-0.144
S. aureus DSM 20231 [3]	0.0511
S. aureus Newman	0.196
S. pneumoniae D39V [4]	0.0411
